“Also recorded” adds a separate entry of the source.
Legend:
[1] = system: zebrafish; experiment: Zebrafish bone mineralization (calcein staining); format: in vivo; settings: at 10 dpf
Protocol: At 5 dpf and onward, larvae were fed for 1 hour every other day. […] At 10 dpf, larvae were immersed in calcein (0.2%) for 30 minutes, as previously described (Du et al., Dev. Biol. 238:239-246, 2001). […] Calcified skeletal structures were visualized by green fluorescence and the number of vertebral bodies counted.

[2] = system: zebrafish embryos (eve1, pax2.1, krox20, MyoD); experiment: Wholemount zebrafish in situ hybridization of dorsal and ventral markers; format: in vivo
Protocol: In situ hybridization was performed as previously described (Westerfield, The Zebrafish Book, (University of Oregon Press, Eugene, Oreg., 1993)). Zebrafish krox20, pax2.1, and MyoD probes were produced as previously described (Weinberg et al., Development 122:271-280, 1996).

[3] = system: TGF-β1-mediated activation of SMAD2; experiment: TGF-β1-mediated SMAD2 phosphorylation in PASMCs; format: cell-based, murine
Protocol: Wild-type and BMPR-II-deficient PASMC were isolated as previously described (Yu et al., J. Biol. Chem. 280:24443-24450, 2005), and cultured in RPMI medium (Invitrogen) supplemented with 10% FBS. C2C12 cells (American Type Culture Collection, Manassas, Va.) were cultured in DMEM supplemented with glutamine and 10% FBS. HepG2 cells and Hep3B cells (ATCC) were cultured in Minimal Essential Alpha Medium with L-glutamine (α-MEM, Invitrogen) containing 10% FBS. For studies of SMAD activation in vitro, PASMC were incubated in 0.5% FCS RPMI for 24 hours, followed by preincubation with drug compounds, noggin, or vehicle for 30 minutes, followed the addition of recombinant BMPs 2, 4, 6, or 7, or TGF-β1 or Activin A (R&D Systems, Minneapolis, Minn.) for 30 minutes.
Cell extracts or tissues were mechanically homogenized in SDS-lysis buffer (62.5 mM Tris-HCl (pH 6.8), 2% SDS, 10% glycerol, 50 mM DTT, 0.01% bromophenol blue); separated by SDS-PAGE; immunoblotted with anti-phospho-SMAD1/5/8, anti-phospho-SMAD2 (Cell Signaling, Beverly, Mass.), or anti-α-tubulin (Upstate/Millipore, Billerica, Mass.) Abs; and visualized using ECL Plus (GE Healthcare, Piscataway, N.J.). Levels of immunoreactive proteins were quantitated by ImageQuant software on a Storm phosphorimager (GE Healthcare).

[4] = biological target: T1, caALK5 (Homo sapiens, UniProt P36897, T204D); experiment: Constitutively-active ALK5 PAI-1 promoter reporter (CAGA-Luc); format: cell-based; settings: PASMCs, up to 20 μM
T1 construct: expressed in transfected cells; host or cells: murine PASMCs, transient transfection
T1 sequence (P36897 34-503 T204D): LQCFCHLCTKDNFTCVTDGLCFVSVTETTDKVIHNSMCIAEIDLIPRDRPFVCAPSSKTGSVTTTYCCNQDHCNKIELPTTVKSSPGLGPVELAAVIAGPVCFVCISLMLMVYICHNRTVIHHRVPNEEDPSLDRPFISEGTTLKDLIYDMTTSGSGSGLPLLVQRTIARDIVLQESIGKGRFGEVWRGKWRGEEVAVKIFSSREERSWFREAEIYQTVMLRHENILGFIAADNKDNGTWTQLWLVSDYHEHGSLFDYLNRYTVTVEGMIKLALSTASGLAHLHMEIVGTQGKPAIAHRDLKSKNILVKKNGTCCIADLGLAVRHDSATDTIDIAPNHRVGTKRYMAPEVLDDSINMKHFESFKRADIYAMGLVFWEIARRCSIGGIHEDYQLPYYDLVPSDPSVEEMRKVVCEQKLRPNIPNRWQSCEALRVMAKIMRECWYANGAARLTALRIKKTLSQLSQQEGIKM
Protocol: Murine PASMCs grown to 50% confluence in 6-well plates were transiently transfected with 0.3 μg Id1 promoter luciferase reporter construct (BRE-Luc, Dr. Peter ten Dijke, Leiden University Medical Center, Netherlands (Korchynskyi et al., J. Biol. Chem. 277:4883-4891, 2002)) in combination with 0.6 μg plasmids expressing constitutively-active forms of BMP type I receptors (caALK2, caALK3, or caALK6, kindly provided by Dr. Kohei Miyazono, University of Tokyo, Japan (Fujii et al., Mol. Biol. Cell 10:3801-3813, 1999)), using Fugene6 (Roche). To assess Activin and […] type I receptor function, PASMCs were transiently transfected with 0.3 μg PAI-1 promoter luciferase reporter construct (CAGA-Luc, Dr. Peter ten Dijke (Dennler et al., Embo J. 17:3091-3100, 1998)) in combination with 0.6 μg plasmids expressing constitutively active forms of type I receptors (caALK4, caALK5, and caALK7, also provided by Dr. Kohei Miyazono (Okadome et al., J. Biol. Chem. 271:21687-21690, 1996; Shimizu et al., Genes Cells 3:125-134, 1998)). For both reporters, 0.2 μg pRL-TK Renilla luciferase (Promega) was used to control for transfection efficiency. […] Cell extracts were harvested, and relative promoter activity quantitated by the ratio of firefly to Renilla luciferase activity using the dual luciferase assay kit (Promega). […] Hepcidin promoter activity was measured by luciferase assay as above.

[5] = biological target: AMP kinase; settings: Zhou et al. 2001; cited from earlier work
[6] = 6-somite stage, treatment at 1 hpf

c1cc(-c2cnn3cc(-c4ccc(OCCN5CCCCC5)cc4)cnc23)ccn1 [Compound C/Dorsomorphin]
number of mineralized vertebrae ([1]; 4 μM from 24 hpf, P<0.001 vs DMSO): significant decrease | effect on vertebral and craniofacial bone calcification (calcein staining) ([1]; 1-4 μM from 24 hpf): inhibition of bone mineralization; also recorded: disrupts vertebral bone mineralization; also recorded: disrupts craniofacial bone mineralization; also recorded: inhibits bone mineralization; also recorded: decrease in vertebral segment and craniofacial bone calcification; also recorded: reduced vertebral segment and craniofacial bone calcification | viability and gross morphology ([1]; 1-4 μM from 24 hpf): morphologically and functionally normal; also recorded: without disrupting overall morphology; also recorded: viable fish at 10 dpf without evidence of dorsalization; also recorded: morphologically grossly normal and viable | expression of Krox20 (rhombomeres 3 and 5) and MyoD [2, 6]: induced lateral expansion; also recorded: expand laterally | expression of dorsal marker pax2.1 [2, 6]: induced expansion; also recorded: expands laterally | expression of ventral marker eve1 ([2]; 18-somite stage, 10 μM at 1 hpf): reduced; also recorded: do not exhibit eve1 expression in the distal tail | effect on the TGF-β signaling pathway ([3]; FIG. 7): does not affect | effect on TGF-β1-mediated activation of SMAD2 ([3]; PASMCs, TGF-β1 0.5 ng/ml, 0.1-20 μM, 30 minutes): did not inhibit | effect on caALK5-mediated PAI-1 promoter activity (CAGA-Luc) [4]: did not inhibit; also recorded: not decreased | IC50 [5]: 15 to 30 µM

Reference: US20100093760A1, “METHODS FOR IDENTIFYING COMPOUNDS THAT MODULATE CELL SIGNALING AND METHODS EMPLOYING SUCH COMPOUNDS” (The General Hospital Corporation, priority 2006, published 2010)
